Measurements taken from PMC7395068, “The evolution of strategies to minimise the risk of human drug-induced liver injury (DILI) in drug discovery and development” (Archives of Toxicology, 2020).
Read-outs that look alike come from different tables or passages of the source.

Columns and labels:
hLiMTs [1] = assay: Combined HCI (HCS) and cellular ATP 3D assay in hLiMTs; details: for AC50 / minimal effective concentration: Homo sapiens
[2] = read-out: Human plasma Cmax; total plasma Cmax.tot, median of 9 literature references; cited from earlier work
rBsep = details: In vitro Assay; ref Dawson 2012; cited from earlier work
PHH [3] = details: In vitro Assay; ref Albrecht 2019; cited from earlier work
HepG2 cells [4] = details: cited from earlier work
[5] = test system: HepG2 C3A spheroid, BSEP, Glu/Gal in HepG2 cells, bioactivation; details: cited from earlier work
PHH [6] = details: cited from earlier work
[7] = test system: THLE-Null and THLE-3A4 cells; details: In vitro Assay; ref Gustafsson 2014; cited from earlier work
HepG2 cells [8] = details: cited from earlier work; remark: listed apart in the source
PHH spheroids = details: cited from earlier work
[9] = cited from earlier work
[10] = test system: THLE or HepG2 cells, isolated mitochondria, BSEP; details: cited from earlier work
[11] = plasma free fraction; cited from earlier work
[12] = cited from earlier work; remark: listed apart in the source
hLiMTs [13] = details: cited from earlier work
[14] = ref Chen 2011; cited from earlier work
[15] = test system: isolated mouse liver mitochondria; details: In vitro Assay; ref Porceddu 2012; cited from earlier work
HepaRG spheroids = assay: Combined HCI (HCS) and cellular ATP 3D assay in HepaRG spheroids; details: for AC50 / minimal effective concentration: Homo sapiens
[16] = Plasma free fraction (fu) and unbound Cmax (Cmax,u); format: in vitro ADME, human; details: unbound plasma Cmax
HepG2 = test system: HepG2; set-up: method as in Albrecht 2019; details: In vitro Assay; ref Albrecht 2019; cited from earlier work
[17] = Microtissue model structural based (HCI), combined HCS and ATP, MEC < 25 × Cmax.tot cut-off
[18] = In vitro Assay, ref Persson 2013
[19] = In vitro Assay, ref Proctor 2017
[20] = Modeled in vitro assays (cytotoxicity, mitochondrial dysfunction, BSEP), ref Aleo et al. 2019

- hLiMTs <25x Avg Cmax ATP (hLiMTs [1]; hLiMTs, ATP endpoint, cut-off <25x Avg Cmax): +ve
- hLiMTs <100x Avg Cmaxu ATP (hLiMTs [1]; hLiMTs, ATP endpoint, cut-off <100x Avg Cmaxu): +ve (<100x Avg Cmaxu)
- hLiMTs <25x Avg Cmax HCS (hLiMTs [1]; hLiMTs, HCS endpoints, cut-off <25x Avg Cmax): +ve
- hLiMTs <100x Avg Cmaxu HCS (hLiMTs [1]; hLiMTs, HCS endpoints, cut-off <100x Avg Cmaxu): +ve (<100x Avg Cmaxu)
- hLiMTs <25x Avg Cmax All (hLiMTs [1]; hLiMTs, all endpoints (ATP and HCS), cut-off <25x Avg Cmax): +ve
- hLiMTs Cmax max All (hLiMTs [1]; hLiMTs, all endpoints, Cmax max used): +ve
- hLiMTs Cmax min All (hLiMTs [1]; hLiMTs, all endpoints, Cmax min used): +ve
- hLiMTs <10 uM All (hLiMTs [1]; hLiMTs, all endpoints, cut-off <10 uM): +ve (<10 uM)
- hLiMTs <100x Avg Cmaxu All (hLiMTs [1]; hLiMTs, all endpoints, cut-off <100x Avg Cmaxu): +ve (<100x Avg Cmaxu)
- HepaRG <25x Avg Cmax ATP (HepaRG spheroids; HepaRG, ATP endpoint, cut-off <25x Avg Cmax): +ve
- HepaRG <100x Avg Cmaxu ATP (HepaRG spheroids; HepaRG, ATP endpoint, cut-off <100x Avg Cmaxu): +ve (<100x Avg Cmaxu)
- HepaRG <25x Avg Cmax HCS (HepaRG spheroids; HepaRG, HCS endpoints, cut-off <25x Avg Cmax): +ve
- HepaRG <100x Avg Cmaxu HCS (HepaRG spheroids; HepaRG, HCS endpoints, cut-off <100x Avg Cmaxu): +ve (<100x Avg Cmaxu)
- HepaRG <25x Avg Cmax All (HepaRG spheroids; HepaRG, all endpoints (ATP and HCS), cut-off <25x Avg Cmax): +ve
- HepaRG Cmax max All (HepaRG spheroids; HepaRG, all endpoints, Cmax max used): +ve
- HepaRG Cmax min All (HepaRG spheroids; HepaRG, all endpoints, Cmax min used): +ve
- HepaRG <10 uM All (HepaRG spheroids; HepaRG, all endpoints, cut-off <10 uM): +ve (<10 uM)
- HepaRG <100x Avg Cmaxu All (HepaRG spheroids; HepaRG, all endpoints, cut-off <100x Avg Cmaxu): +ve (<100x Avg Cmaxu)
- Human plasma Cmax,u [16]: 6.508 µM
SMILES: O=C1CN(/N=C/c2ccc([N+](=O)[O-])o2)C(=O)N1 [nitrofurantoin, reference compound]
- AC50 (hLiMTs [1]; read-out: ATP endpoint AC50): 11.7 µM
- minimal effective concentration (hLiMTs [1]; read-out: ATP endpoint MEC): 3.21 µM
- AC50 (hLiMTs [1]; read-out: HCS endpoint AC50): 73.6 µM
- minimal effective concentration (hLiMTs [1]; read-out: HCS endpoint MEC): 19.4 µM
- DILI prediction hLiMTs (HCS-MEC) (hLiMTs [1]; [17]): +VE (MEC < 25 × Cmax.tot cut-off)
- Cmax [2]: 21 µM
- Inhibition of rBsep cutoff<1& cmax u>.2 (rBsep): -VE
- Inhibition of rBsep cutoff<3 (rBsep): -VE
- Cytotoxicity PHH 48 hrs (PHH [3]): +VE
- Cluser analysis (HepG2 cells [4]; [18]): -VE
- Structural based (HCI) (HepG2 cells [4]; [18]): +VE
- DILI in vitro assay prediction, Persson (2013) (HepG2 cells [4]; Structural based (HCI), HepG2, ref Persson et al. 2013): -VE
- Bayesian Machine Learning DILI prediction, Williams (2019) ([5]; Bayesian modeling, ref Williams et al. 2019): +VE
- Bayesian Machine Learning ([5]; In vitro Assay, ref Williams 2019): +VE
- PHH/100uM, Proctor (2017) (PHH [6]; 2D PHH, ATP, IC50 threshold 100 µM, ref Proctor et al. 2017): +VE (IC50 threshold of 100 µM)
- PHH ATP <100uM (PHH [6]; [19]): +VE (IC50 threshold of 100 µM)
- THLE-Null [7]: -VE
- Structural based (HCI) (HepG2 cells [8]; In vitro Assay, ref O'Brien 2006): +VE
- DILI in vitro assay prediction, O'Brien (2006) (HepG2 cells [8]; Structural based (HCI), HepG2, ref O'Brien et al. 2006): +VE (lowest HCI endpoint IC50 (or in the absence of dose–response < 100 µM) < 30 × total human plasma exposure levels (Cmax.tot))
- hLiMTs ATP <20 x Cmax (PHH spheroids; In vitro Assay, ref Vorrink 2018): +VE (IC20 < 20 × Cmax.tot cut-off)
- DILI in vitro assay prediction, Vorrink (2018) (PHH spheroids; PHH spheroids, ATP, 14 days, IC20 < 20 × Cmax.tot, ref Vorrink et al. 2018): +VE (IC20 < 20 × Cmax.tot cut-off)
- Assigned DILI category ([9]; Chen et al. 2016 or literature alignment, ref Chen et al. 2016): 3
- In vivo DILI ([9]; […]): +VE
- In vivo DILI ([9]; ref Albrecht 2019): +VE
- In vivo DILI ([9]; ref Aleo 2019): +VE
- In vivo DILI ([9]; ref Dawson 2012): +VE
- In vivo DILI ([9]; ref Garside 2014): +VE
- In vivo DILI ([9]; ref Gustafsson 2014): +VE
- In vivo DILI ([9]; ref O'Brien 2006): +VE
- In vivo DILI ([9]; ref Persson 2013): +VE
- In vivo DILI ([9]; ref Porceddu 2012): +VE
- In vivo DILI ([9]; ref Proctor 2017): +VE
- In vivo DILI ([9]; ref Vorrink 2018): +VE
- In vivo DILI ([9]; ref Williams 2019): +VE
- Partition Hybrid HRM Score ([10]; In vitro Assay, ref Aleo 2019): +VE
- Ro2 Hybrid HRM Score ([10]; In vitro Assay, ref Aleo 2019): +VE
- Partition Hybrid HRM Score ≥4, Aleo (2019) [10, 20]: +VE (Partition Hybrid HRM Score ≥4)
- Partition Hybrid HRM Score ≥8, Aleo (2019) [10, 20]: -VE
- Rule of Two hybrid HRM Score ≥3, Aleo (2019) [10, 20]: +VE (Rule of Two hybrid HRM Score ≥3)
- Rule of Two hybrid HRM Score ≥8, Aleo (2019) [10, 20]: -VE
- fu [11]: 0.310
- DILI severity category (Chen et al. [2016]) ([12]; LTKB DILIrank category, ref Chen et al. 2016): Most
- DILI severity category (Chen 2016) ([12]; human DILI classification, LTKB DILIrank, ref Chen et al. 2016): Most
- DILI severity category ([12]; human DILI severity, ref Chen et al.): Most
- DILI +VE (5-8), DILI -VE (-4) ([12]; ref Chen 2016): +VE
- DILI severity category ([12]; ref Chen 2016): vMost-DILI-Concern
- hLiMTs ATP <100uM (hLiMTs [13]; [19]): +VE (IC50 threshold of 100 µM)
- hLiMTs/100uM, Proctor (2017) (hLiMTs [13]; hLiMTs, ATP, IC50 threshold 100 µM, ref Proctor et al. 2017): +VE (IC50 threshold of 100 µM)
- DILI Score (FDA) (1-8) [14]: 8
- in vitro data EC2<=1x Cmax [15]: +VE
- in vitro data EC20<=2uM [15]: -VE
- AC50 (HepaRG spheroids; HepaRG, read-out: ATP endpoint AC50): 11.6 µM
- minimal effective concentration (HepaRG spheroids; HepaRG, read-out: ATP endpoint MEC): 9.27 µM
- AC50 (HepaRG spheroids; HepaRG, read-out: HCS endpoint AC50): 17.5 µM
- minimal effective concentration (HepaRG spheroids; HepaRG, read-out: HCS endpoint MEC): 5.59 µM
- DILI prediction HepaRG spheroids (HCS-MEC) (HepaRG spheroids; [17]): +VE (MEC < 25 × Cmax.tot cut-off)
- Cytotoxicity HepG2 48 hrs (HepG2): +VE
